# Counter-ions that a name gives are not always drawn.
# How the values were obtained:
# DA receptors = conditions: cited from earlier work
# rats [1] = conditions: cited from earlier work
# [2] = system: DA metabolites DOPAC and HVA; conditions: no NSD1015 treatment; cited from earlier work
# D3 dopamine receptor = D3 dopamine receptor (Rattus norvegicus, UniProt P19020); conditions: among screened classical and atypical neuroleptics; cited from earlier work
# rodents = conditions: cited from earlier work; for Dopaminergic stereotypic behavioral effects (sniffing, rearing): gross behavioral observations, certain dosages, rodents; for Locomotor activity: photocell motility meters
# Dopa accumulation = conditions: normal animals, after NSD1015; cited from earlier work
# rats [3] = assay: Behavioral testing in rats of GMC6650; format: in vivo, rat
# Method: Behavioral Testing in Rats of Compound GMC6650 (Example 6)
# One rat, weighing about 350 g, was injected SC in the neck with 1 μmol/kg of GMC6650. Another rat, weighing about 350 g, was injected PO with the same dose. The drug (3.4 mg) was initially dissolved in: ethanol (50 μL), 1 M acetic acid (2 drops), and water (1.4 mL), corresponding to 15 μmol per 1.5 mL, which means a concentration of 10 μmol/mL. By first diluting that solution 10 times and injecting 0.35 mL, the given dose will be 1 μmol/kgμmol/kg. This goes for both of rats.
# Stereotypy was intense and was registered for several hours by visual inspection. […] The next morning, the SC rat was still active, while the PO rat was resting. Duration of action was thus ≧10 h for both sc and po administration of 1 μmol/kg.
# [4] = 1 μmol/kg, SC or PO (same pattern in both rats)
# D3 dopamine receptor, sequence (P19020 whole entry): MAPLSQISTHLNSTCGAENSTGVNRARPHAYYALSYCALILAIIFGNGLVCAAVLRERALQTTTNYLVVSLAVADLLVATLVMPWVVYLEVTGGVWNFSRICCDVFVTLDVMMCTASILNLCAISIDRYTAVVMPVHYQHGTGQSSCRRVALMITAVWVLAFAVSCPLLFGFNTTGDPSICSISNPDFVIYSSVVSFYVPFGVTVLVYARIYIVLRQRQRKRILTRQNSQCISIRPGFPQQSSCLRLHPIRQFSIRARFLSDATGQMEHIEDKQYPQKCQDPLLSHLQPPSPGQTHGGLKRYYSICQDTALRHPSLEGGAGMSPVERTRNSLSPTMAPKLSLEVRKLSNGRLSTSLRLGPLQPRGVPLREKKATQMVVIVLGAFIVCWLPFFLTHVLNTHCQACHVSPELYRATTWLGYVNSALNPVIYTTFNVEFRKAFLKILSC
compound,measurement,setting,value
CCCN(CCC)CCC1=CC(=O)CCC1 (as salt: hydrochloride),melting point,,95 to 97 °C
CCCN1CCCC(C2=CC(=O)CCC2)C1 (stereo not shown) (as salt: hydrochloride),melting point,,184 to 185 °C
CCN(CC)CCC1=CC(=O)CCC1 (as salt: hydrochloride),melting point,,148 to 149 °C
CCCN(CCC1=CC(=O)CCC1)CCc1ccccc1 (as salt: hydrochloride),melting point,,110 to 112 °C
"CCCN(CCC)C1CCC2=C(CCCC2=O)C1 (racemic) [(±)-5-keto-DPATT, (±)-5-keto-2-N,N-di-n-propylamino-tetrahydrotetralin]",Affinity to DA receptors (in vitro binding),DA receptors,no affinity
same,Dopaminergic effects in vivo,rats [1],does possess dopaminergic effects
"CCCN[C@@H]1CCc2c(OC)cccc2[C@@H]1C (relative stereo) [(+)-AJ76, (+)-cis-1S,2R-5-methoxy-1-methyl-2-(N-n-propylamino)tetralin]",Levels of DA metabolites DOPAC and HVA,[2],raise the levels
same,Preference for the D3 site,D3 dopamine receptor,highest preference for the D3 site
same,"Dopaminergic stereotypic behavioral effects (sniffing, rearing)",rodents,weak
same,Locomotor activity,rodents,increase the locomotor activity
same,Dopa accumulation,Dopa accumulation,raise the Dopa accumulation
"CCCN(CCC)[C@@H]1CCc2c(OC)cccc2[C@@H]1C (relative stereo) [(+)-UH232, (+)-cis-1S,2R-5-methoxy-1-methyl-2-(N,N-di-n-propylamino)tetralin]",Levels of DA metabolites DOPAC and HVA,[2],raise the levels
same,Preference for the D3 site,D3 dopamine receptor,highest preference for the D3 site
same,"Dopaminergic stereotypic behavioral effects (sniffing, rearing)",rodents,weak
same,Locomotor activity,rodents,increase the locomotor activity
same,Dopa accumulation,Dopa accumulation,raise the Dopa accumulation
"CCCN1CCC[C@@H]2CC3=C(CCCC3=O)C[C@H]21 (relative stereo) [GMC6650, 1-Propyl-trans-2,3,4,4a,5,7,8,9,10,10a-decahydrobenzo[g]quinolin-6-one]",Activity the next morning,rats [3]; 1 μmol/kg PO,resting
same,Activity the next morning,rats [3]; 1 μmol/kg SC,still active
same,Duration of action,rats [3]; 1 μmol/kg po,≥ 10 h
same,Duration of action,rats [3]; 1 μmol/kg sc,≥ 10 h
same,Stereotypy after 10 hours,"rats [3]; 1 μmol/kg, SC and PO rat, 10 hours after dosing",still showing signs of stereotypy
same,Time until clear signs of stereotypy,rats [3]; [4],30 min
same,"Time until obvious dopaminergic effects (chewing, sniffing, licking, penile grooming, grooming)",rats [3]; [4],15 min
same,"Time until rats became sedated, closing or partly closing their eyes",rats [3]; [4],10 min
same,"Stereotypy, visual inspection","rats [3]; 1 μmol/kg, SC or PO, registered for several hours",intense
